The subject of assay [1] is Aβ1-42 induced inhibition of long-term potentiation in the CA1 region of hippocampal slices. The assay can be described thus: Aβ-induced LTP impairment in CA1 region of hippocampal slices (fEPSP recordings, theta-burst stimulation). The format is cell-based, rat; mice. The note with it: for reversal of Aβ-induced LTP impairment: individual terpene trilactones at 1 μM each, co-treated with 200 nM Aβ1-42 oligomers, 20 min; for efficiency of rescue of LTP impairment compared with GJ: 1 μM, 20 min treatment, slices treated with Aβ.

The test system of assay [2] is cultured hippocampal neurons treated with oligomeric Aβ1-42. The assay can be described thus: Neuronal cell death assay (nuclear counting of viable cells). The note with it: for cells surviving: mean±SEM.
In assay [3] the test system is SY5Y human neuroblastoma cell line. Conditions: Bate et al. (25); cited from earlier work.
For a further assay, the system named is glycine receptor. The note with it: among several receptor-gated channels; cited from earlier work.
Assay [4] deals with GABAA receptor convulsant binding site. Conditions: cited from earlier work.
The subject of a further assay is GABAA receptor. Conditions: compared with all the ginkgolides; cited from earlier work.
Assay [5] concerns inhibition of LTP by Aβ1-42 oligomers. Conditions: earlier studies (19); cited from earlier work.
[6] abbreviates: 1 μM compound added at the same time as 10 μM oligomeric Aβ1-42, 24 hour, Aβ alone 48.5%±2.4.

Take `CC(C)(C)[C@]1(O)CC2OC(=O)CC23C(=O)OC2OC(=O)[C@H](O)C231` (stereo partly drawn) [BB, bilobalide]: in assay [1], the “reversal of Aβ-induced LTP impairment” value is “No effect”.

Take `C[C@@H]1C(=O)O[C@H]2C[C@@]34[C@H]5C[C@@H](C(C)(C)C)[C@]36[C@@H](OC(=O)[C@@H]6O)O[C@@]4(C(=O)O5)[C@]21O` [GA, ginkgolide A]: in assay [2] (setting [6]), the cells surviving is on record as 50.5%±+5.7. Besides, the “blockade of cell death” value in assay [3] was “blockade of cell death”. In assay [1], the “efficiency of rescue of LTP impairment compared with GJ” value was “slightly less than that of GJ”; the “reversal of Aβ-induced LTP impairment” value was “capable of reproducing the activity of the enriched extract and reversing Aβ-induced LTP impairment”. Moreover, in the assay on glycine receptor, the “antagonistic properties toward glycine receptor” value was “showed antagonistic properties exclusively toward glycine receptor”.

As to `C[C@@H]1COC2CC34C5C[C@@H](C(C)(C)C)C36C(OC[C@@H]6O)O[C@@]4(CO5)[C@]21O` (stereo partly drawn) [GA-triether], in assay [1], the “efficiency of rescue of LTP impairment compared with GJ” value was “slightly less than that of GJ”; the “reversal of Aβ-induced LTP impairment” value is “capable of reproducing the activity of the enriched extract and reversing Aβ-induced LTP impairment”.

In the case of `CC1C(=O)OC2C(O)C34C5CC(C(C)(C)C)C36C(OC(=O)C6O)OC4(C(=O)O5)C12O` (stereo not drawn) [GB, ginkgolide B], in assay [3], the “blockade of cell death” value is reported as “blockade of cell death”. Moreover, in assay [1], the “reversal of Aβ-induced LTP impairment” value is “No effect”. For the same molecule, the “antagonistic properties toward glycine receptor” value with glycine receptor is recorded as “showed antagonistic properties exclusively toward glycine receptor”.

Turning to `C[C@@H]1C(=O)O[C@@H]2[C@H]1[C@@]13OC4OC(=O)[C@H](O)C45[C@H](C(C)(C)C)[C@@H](O)C(OC1=O)[C@]53[C@H]2O` (stereo partly drawn) [GM, Ginkgolide M], the “displacement of TBPS (35S-tert-butylbicyclophosphorothionate)” value in assay [4] is recorded as “efficiently displaced”. Further, the “inhibition of the GABAA receptor” value in the assay with GABAA receptor is recorded as “highest inhibition”.

`COc1ccc(C2CNC(=O)C2)cc1OC1CCCC1` (stereo not drawn) [rolipram]: the “reversal of inhibition of LTP by Aβ1-42 oligomers” value in assay [5] is “can be reversed by treatment with the phosphodiesterase 4 (PDE4) inhibitor rolipram”.

On to ginkgolide C [GC], for which, in assay [1], the “reversal of Aβ-induced LTP impairment” value is “No effect”. Besides, in the assay with glycine receptor, the “antagonistic properties toward glycine receptor” value is given as “showed antagonistic properties exclusively toward glycine receptor”.

Consider ginkgolide J [GJ], for which the cells surviving in assay [2] (setting [6]) was 70.7%±1.4. In assay [2] (5 μM, data not shown), the “prevention of Aβ-toxicity” value is “completely prevented the Aβ-toxicity”. In addition, in assay [1] (155 min), the “potentiation at the end of the recording (residual potentiation, FIG. 12)” value is “most potent ginkgolide, completely mimicking the activity of the enriched extract”. Besides, the “reversal of Aβ-induced LTP impairment” value in assay [1] is “capable of reproducing the activity of the enriched extract and reversing Aβ-induced LTP impairment”. The “antagonistic properties toward glycine receptor” value in the assay on glycine receptor is listed as “showed antagonistic properties exclusively toward glycine receptor”.

As to “oligomeric Aβ1-42: Aβ1-42 purchased from American Peptide, prepared in oligomeric form; neurotoxic agent [reference compound]”, the cells surviving in assay [2] (10 μM oligomeric Aβ1-42 alone, 24 hour exposure) is recorded as 48.5%±2.4. Further, the “LTP in the CA1 area relative to control” value in assay [1] (200 nM Aβ1-42 oligomers alone, within 20 min of exposure) was “depressed LTP in the CA1 area to about a half of control values”. Also, the “effect on baseline transmission” value in assay [1] (substance alone) was “Neither Aβ nor P8A alone affected baseline transmission”.

Source of the values: patent publication US20090221019A1, “Core-Modified Terpene Trilactones From Ginkgo Biloba Extract and Biological Evaluation Thereof” (priority 2005, published 2009).
